According to US12091699B2, “Method for enhancing production of homeoprotein using inhibitor of lysosomal function” (Korea Advanced Institute of Science and Technology, priority 2021, dated 2024):

Legend:
Assay type in all cases: cell-based, human
[1] = system: HeLa cell line that continuously produces the Otx2 homeoprotein; assay: Western blot analysis of Otx2 protein in cell lysate; conditions: for expression level of the Otx2 protein in cell lysate: HeLa cells, western blot V5 (Otx2), FIG. 2B; for intracellular expression of the Otx2 protein: FIG. 2C
Procedure: In order to detect a homeoprotein present inside the cell, cells were lysed with a RIPA lysate (tertiary distilled water including 20 mM Tris-HCl, pH 7.5, 150 mM NaCl, 1 mM Na2EDTA, 1 mM EGTA, 1% NP-40, 1% sodium deoxycholate, 2.5 mM sodium pyrophosphate, 1 mM β-glycerophosphate, 1 mM Na3VO4, and 1 μg/ml leupeptin), and then proteins in the cells were separated according to molecular weight by performing electrophoresis (SDS-PAGE) on the cell lysate on a polyacrylamide gel including sodium dodecyl sulfate. The gel was induced to electrically bind to a PVDF membrane after protein separation to transfer the proteins to the membrane.
The V-ATPase inhibitor is a lysosomal ion channel inhibitor, and when cells are treated with the inhibitor, the pH in the lysosome is increased, so the protein degradation by the lysosome may be suppressed because the activity of the hydrolase present in the lysosome is inhibited.
(§1) Furthermore, the level of secreted Otx2 protein and the intracellular expression level of Otx2 protein when the HeLa cells were treated with the inhibitor of lysosomal function were analyzed by a dot blot analysis and a western blot analysis.
(§2) In addition, the present inventors treated the HeLa cells with bafilomycin D (BafD) together with bafilomycin A1 (BafA1) and concanamycin A (ConA), which are types of V-ATPase inhibitors, at different concentrations, and performed an analysis in the same manner as in FIG. 2B.

[2] = system: HeLa cell line that continuously produces the Otx2 homeoprotein; assay: Immunocytochemical staining of intracellular Otx2 protein after treatment with inhibitor of lysosomal function; conditions: HeLa cells, treated 16 hours, FIG. 2A, vehicle: almost exclusively in cell nucleus
Procedure: Cells were cultured on a cover glass in a cell incubator for 24 hours or more, and treated with a fixing solution (physiological saline including 4% paraformaldehyde) at room temperature for 20 minutes to fix the cells. Next, after the cells were treated with a permeability-imparting solution (physiological saline including 0.1% TWEEN-20 (polysorbate 20)) at room temperature for 10 minutes, the cells were treated with a blocking solution (physiological saline including 10% donkey serum) at room temperature for 1 hour. Subsequently, the cells were treated with a blocking solution including a primary antibody, cultured at 4° C. for 16 hours, then treated with a blocking solution 10 including a fluorophore-conjugated secondary antibody, and cultured at room temperature for 1 hour. Then, the fluorescence signals of the cells were analyzed under an Olympus FV1000 confocal microscope.
(§3) Accordingly, the present inventors treated a HeLa cell line that continuously produces the Otx2 homeoprotein manufactured in Example 2 with a V-ATPase inhibitor and a lysosomal pH enhancer as inhibitors of lysosomal function, and confirmed a change in secretion of the homeoprotein. The V-ATPase inhibitor is a lysosomal ion channel inhibitor, and when cells are treated with the inhibitor, the pH in the lysosome is increased, so the protein degradation by the lysosome may be suppressed because the activity of the hydrolase present in the lysosome is inhibited.
Thus, specifically, after the HeLa cells were treated with each of V-ATPase inhibitors bafilomycin A1 (BafA1) and concanamycin A (ConA), and a lysosomal pH enhancer chloroquine (CQ) at different concentrations for 16 hours, the intracellular expression of the Otx2 protein was observed by immunocytochemical staining.

[3] = system: HeLa cell line that continuously produces the Otx2 homeoprotein; assay: Dot blot analysis of Otx2 protein secreted into cell culture solution; conditions: FIG. 2C
Procedure: In order to detect a homeoprotein secreted to the outside of the cell, a cell culture solution including sodium heparin was allowed to pass through a polyvinylidene difluoride (PVDF) membrane. Next, the membrane was treated with a blocking solution (TBST including 5% skim milk) and allowed to react at room temperature for 1 hour. Subsequently, the membrane was treated with a blocking solution including a primary antibody, allowed to react at 4° C. for 16 hours, then treated with a horseradish peroxidase (HRP)-conjugated secondary antibody, and cultured at room temperature for 1 hour, and then the membrane was exposed to an X-ray photosensitive film by inducing an enzymatic reaction using an ECL solution as a substrate to thereby analyze the results.
as §3, §1, §2

[4] = concentration increased from 20 nM to 200 nM
[5] = concentration increased from 5 nM to 50 nM

With CCN(CC)CCCC(C)Nc1ccnc2cc(Cl)ccc12 (stereo not drawn) [CQ, chloroquine] the “expression level of the Otx2 protein in cell lysate” value (shortened to “expression level”) [1] was “expressed at a higher level” and the “expression pattern (intracellular position) of Otx2 protein” value (“expression pattern” below) [2] was “occurred even in the cytoplasm including the cell nucleus”.

In the case of bafilomycin D [BafD], the “secretion of the Otx2 protein to the outside of the cell” value (“secretion of the Otx2 protein” below) [3, 4] is reported as “increased” and the “intracellular expression of the Otx2 protein” value (shortened to “intracellular expression”) [1, 4] is reported as “increased”.

In the case of C/C=C/[C@H]1O[C@@](O)([C@@H](C)[C@H](O)[C@H](C)[C@H]2OC(=O)/C(OC)=C/C(C)=C/[C@@H](C)[C@@H](O)[C@@H](CC)[C@@H](O)[C@H](C)C/C(C)=C/C=C/[C@@H]2OC)C[C@@H](O[C@H]2C[C@@H](O)[C@H](OC(N)=O)[C@@H](C)O2)[C@@H]1C [ConA, concanamycin A], the “secretion of the Otx2 protein” value [3, 5] is reported as “increased”, the “expression level” value [1] is reported as “expressed at a higher level” and the “intracellular expression” value [1, 5] is reported as “increased”. For the same compound, the “expression pattern” value [2] was “occurred even in the cytoplasm including the cell nucleus”.

CO/C1=C\C(C)=C\[C@@H](C)[C@@H](O)[C@@H](C)C/C(C)=C/C=C/[C@H](OC)[C@@H]([C@@H](C)[C@@H](O)[C@H](C)[C@@]2(O)C[C@@H](O)[C@H](C)[C@@H](C(C)C)O2)OC1=O [BafA1, bafilomycin A1] was tested, and the “secretion of the Otx2 protein” value [3, 4] was “increased”, the “expression level” value [1] was “a big difference did not appear” and the “intracellular expression” value [1, 4] was “increased”. For the same compound, the “expression pattern” value [2] was “occurred even in the cytoplasm including the cell nucleus”.
